Source: doi:10.1101/735704v2, “Selectivity filter instability dominates the low intrinsic activity of the TWIK-1 K2P K^+ Channel” (biorxiv, 2019)

Target: T1, TWIK-1* (K2P1.1/KCNK1, I293A/I294A trafficking mutant) (Homo sapiens, UniProt O00180, I293A/I294A)
T1 construct: full-length channel with mutated di-isoleucine endocytic retention motif (I293A/I294A), subcloned into pFAW, mRNA-injected Xenopus oocytes, giant excised inside-out patches; homodimer
T1 sequence (O00180 1-336 I293A/I294A): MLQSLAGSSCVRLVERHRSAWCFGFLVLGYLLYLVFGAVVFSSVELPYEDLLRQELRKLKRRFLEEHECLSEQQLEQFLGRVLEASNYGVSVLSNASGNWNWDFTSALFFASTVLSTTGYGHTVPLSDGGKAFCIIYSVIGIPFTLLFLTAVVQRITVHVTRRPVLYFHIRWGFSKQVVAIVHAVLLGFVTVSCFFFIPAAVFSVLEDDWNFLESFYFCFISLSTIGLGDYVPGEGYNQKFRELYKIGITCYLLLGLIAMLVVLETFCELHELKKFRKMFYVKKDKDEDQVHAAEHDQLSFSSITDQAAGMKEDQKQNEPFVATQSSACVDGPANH
Test: giant excised inside-out patch electrophysiology, Xenopus oocytes, Hill fit
Format: cell-based

IC50: 3.3 ± 0.1 µM
SMILES: CCCCC[N+](CCCCC)(CCCCC)CCCCC [tetrapentylammonium]
